Assay results reported in the supplement of paper PMC10307832.

How the values were obtained:
Assay in all cases: relative viability (nuclei count vs DMSO), 5 days (fraction); higher = more cells survive
Navitoclax = compound: CC1(C)CCC(c2ccc(Cl)cc2)=C(CN2CCN(c3ccc(C(=O)NS(=O)(=O)c4ccc(N[C@H](CCN5CCOCC5)CSc5ccccc5)c(S(=O)(=O)C(F)(F)F)c4)cc3)CC2)C1 [Navitoclax]
Summary of the method: (§1)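 Viability was defined as treated-well nuclei divided by vehicle-well nuclei, with the median taken over replicate plates. Cells from lung cancer lines sat overnight at 37 °C in 1536-well plates, received five √10-spaced library-drug doses by pinning on vehicle-anchored plates, and grew 5 days without medium change before one-step fixation, permeabilisation and Hoechst staining, 4× imaging and MetaXpress nuclear counts. Only plates with control CV under 25% and at least one doubling were kept.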

XAV939 = compound: Oc1nc(-c2ccc(C(F)(F)F)cc2)nc2c1CSCC2 [XAV939]
Summary of the method: as §1

C-75 = compound: CCCCCCCC[C@H]1[C@@H](C(=C)C(=O)O1)C(=O)O [C-75]
Summary of the method: as §1

[1] = compound: O=C(O)c1ccc(-c2c[nH]c3ncc(-c4ccccc4)cc23)cc1C1CCCC1
Summary of the method: as §1

AZD7762 = compound: NC(=O)Nc1cc(-c2cccc(F)c2)sc1C(=O)N[C@H]1CCCNC1 [AZD7762]
Summary of the method: as §1

Cell Line | relative viability (Navitoclax; 0.005 µM) | relative viability (Navitoclax; 0.01581 µM) | relative viability (Navitoclax; 0.05 µM) | relative viability (Navitoclax; 0.1581 µM) | relative viability (Navitoclax; 0.5 µM) | relative viability (XAV939; 0.08 µM) | relative viability (XAV939; 0.253 µM) | relative viability (XAV939; 0.8 µM) | relative viability (XAV939; 2.53 µM) | relative viability (C-75; 0.08 µM) | relative viability (C-75; 0.253 µM) | relative viability (C-75; 0.8 µM) | relative viability (C-75; 2.53 µM) | relative viability (C-75; 8 µM) | relative viability ([1]; 0.04 µM) | relative viability ([1]; 0.1265 µM) | relative viability ([1]; 0.4 µM) | relative viability ([1]; 1.265 µM) | relative viability (AZD7762; 0.01 µM) | relative viability (AZD7762; 0.03162 µM) | relative viability (AZD7762; 0.1 µM) | relative viability (AZD7762; 0.3162 µM) | relative viability (AZD7762; 1 µM) | relative viability (Navitoclax; 0.5 µM, anchor plate) | relative viability (AZD7762; 0.2 µM, anchor plate)
NCI-H661 | 0.985 | 0.995 | 1.05 | 0.916 | 0.935 | 1.02 | 0.952 | 0.945 | 0.956 | 0.983 | 1.01 | 0.98 | 0.911 | 0.94 | 0.915 | 1.02 | 0.969 | 1.01 | 1.03 | 1.11 | 1.1 | 0.979 | 0.558 | – | –
NCI-H727 | 0.886 | 1.18 | – | 0.87 | 0.894 | 1.11 | 0.731 | 0.899 | 0.975 | 0.824 | 1.4 | 0.968 | 0.73 | 1.04 | 0.995 | 1.01 | 0.986 | 0.928 | 0.838 | 1.18 | 0.953 | 0.764 | 0.444 | 0.491 | 0.576
NCI-H838 | 0.964 | 1.02 | 1.08 | 1 | 0.97 | 0.965 | 0.892 | 0.805 | 0.624 | 0.989 | 0.82 | 0.941 | 0.867 | 0.895 | 0.972 | 1.16 | 0.994 | 0.926 | 1.04 | 0.982 | 1.01 | 0.942 | 0.599 | 1.21 | 0.944
NCI-H1299 | 1 | 1.05 | 1 | 1.01 | 1.03 | 1.04 | 0.939 | 1.06 | 1.03 | 1.01 | 0.98 | 1.02 | 0.899 | 1.03 | 1.03 | 1.04 | 0.957 | 0.878 | 1.06 | 1.01 | 1.06 | 1.02 | 0.56 | 1.03 | –
NCI-H1355 | 1.03 | 1.07 | 0.956 | 0.975 | 0.986 | 0.938 | 0.831 | 0.826 | 0.759 | 0.966 | 1.01 | 0.921 | 0.89 | 0.982 | 1.02 | 1.14 | 0.979 | 0.744 | 0.874 | 0.979 | 0.938 | 1.09 | 0.785 | 1.01 | 0.819
NCI-H1395 | 0.998 | 0.943 | 0.922 | 0.905 | 1 | 0.918 | 0.903 | 0.88 | 0.972 | 0.828 | 0.893 | 0.794 | 0.788 | 1.04 | 0.94 | 1.01 | 0.893 | 0.837 | 0.931 | 1.11 | 1.06 | 0.461 | 0.408 | 1.25 | 0.398
NCI-H1437 | 0.969 | 1.05 | 0.932 | 0.958 | 0.974 | 1.03 | 0.901 | 0.999 | 0.93 | 0.941 | 1.05 | 0.919 | 0.984 | 0.987 | 0.962 | 0.988 | 0.976 | 0.586 | 1.05 | 0.963 | 1.04 | 1.01 | 0.867 | 1.06 | 1.11
NCI-H1563 | 0.973 | 1.04 | 0.9 | 1.04 | 1.28 | 0.978 | 0.987 | 0.822 | 0.698 | 1.06 | 1.06 | 0.884 | 0.92 | 1.08 | 1.07 | 1.03 | 0.958 | 1.01 | 1.02 | 1.01 | 0.993 | 1.05 | 0.914 | – | –
NCI-H1623 | 0.936 | 0.957 | 0.812 | 0.984 | 1.03 | 0.922 | 0.838 | 0.848 | 0.814 | 1.02 | 1.22 | 1.02 | 0.931 | 0.978 | 0.963 | 0.995 | 0.932 | 0.762 | 0.869 | 0.938 | 0.936 | 1.1 | 0.895 | – | –
NCI-H1648 | 0.914 | 1.07 | – | 0.78 | 1.09 | 0.794 | 0.764 | 0.887 | 0.737 | 0.758 | 1.27 | 0.737 | – | 0.899 | 1 | 1.15 | 0.75 | 0.768 | 1.29 | 1.08 | 0.87 | 0.932 | 0.99 | – | 0.676
NCI-H1650 | 0.896 | 1.16 | 0.97 | 1.01 | 0.857 | 0.955 | 0.844 | 0.888 | 0.616 | 0.925 | 0.984 | 0.927 | 0.976 | 1.09 | 0.891 | 1.08 | 0.985 | 0.716 | 0.96 | 0.929 | 0.95 | 0.627 | 0.267 | 1.2 | –
NCI-H1651 | 0.989 | 1 | 0.802 | 0.942 | 1 | 1 | 0.85 | 0.943 | 1 | 0.956 | 1.02 | 0.952 | 0.935 | 0.969 | 0.931 | 1.08 | 0.968 | 0.784 | 1.02 | 0.98 | 1.03 | 0.956 | 0.531 | 1.06 | 0.495
NCI-H1666 | 1.02 | 1.02 | 0.853 | 1.02 | 1.01 | 1.03 | 0.98 | 0.977 | 0.929 | 1.05 | 1.21 | 0.946 | 0.721 | 0.96 | 0.958 | 1.01 | 0.949 | 0.68 | 1.09 | 1.04 | 1.1 | 1.01 | 0.98 | 0.994 | 0.895
NCI-H1703 | 0.907 | 1.05 | 0.933 | 0.994 | 0.939 | 1.05 | 0.98 | 0.929 | 0.812 | 0.993 | 0.929 | 0.83 | 0.869 | 0.817 | 0.949 | 1.04 | 1.11 | 1.02 | 0.767 | 0.35 | 0.276 | 0.174 | 0.194 | 1.18 | 0.132
